Experimental data published in PubChem BioAssay (NCI).
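Cells were grown in 96-well plates and exposed to each compound for 48 hours at five concentrations; endpoints were interpolated linearly between bracketing concentrations, or set to the highest concentration if not reached. At the TGI there is no net growth.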

Assays:
Test in all cases: DTP human tumour cell line panel, 48 h
UACC-62 melanoma = tested on: UACC-62 melanoma
TK-10 renal = tested on: TK-10 renal
ACHN renal = tested on: ACHN renal
UO-31 renal = tested on: UO-31 renal
CCRF-CEM leukemia = tested on: CCRF-CEM leukemia
OVCAR-5 ovarian = tested on: OVCAR-5 ovarian
HOP-18 NSCLC = tested on: HOP-18 NSCLC
HCT-15 colon = tested on: HCT-15 colon
NCI-H23 lung = tested on: NCI-H23 lung
SF-268 CNS = tested on: SF-268 CNS
OVCAR-4 ovarian = tested on: OVCAR-4 ovarian
HOP-62 NSCLC = tested on: HOP-62 NSCLC
A498 renal = tested on: A498 renal
KM20L2 colon = tested on: KM20L2 colon
RXF-631 renal = tested on: RXF-631 renal
SNB-75 CNS = tested on: SNB-75 CNS
COLO 205 colon = tested on: COLO 205 colon
DMS 273 small cell lung = tested on: DMS 273 small cell lung
K-562 leukemia = tested on: K-562 leukemia
KM12 colon = tested on: KM12 colon
MOLT-4 leukemia = tested on: MOLT-4 leukemia
DMS 114 small cell lung = tested on: DMS 114 small cell lung
OVCAR-8 ovarian = tested on: OVCAR-8 ovarian
SK-MEL-2 melanoma = tested on: SK-MEL-2 melanoma
DLD-1 colon = tested on: DLD-1 colon
NCI-H460 lung = tested on: NCI-H460 lung
786-0 renal = tested on: 786-0 renal
RPMI-8226 leukemia = tested on: RPMI-8226 leukemia
UACC-257 melanoma = tested on: UACC-257 melanoma
SNB-19 CNS = tested on: SNB-19 CNS
SW-620 colon = tested on: SW-620 colon
SF-295 CNS = tested on: SF-295 CNS
SNB-78 CNS = tested on: SNB-78 CNS
MALME-3M melanoma = tested on: MALME-3M melanoma
CAKI-1 renal = tested on: CAKI-1 renal
U251 CNS = tested on: U251 CNS
M14 melanoma = tested on: M14 melanoma
SK-MEL-28 melanoma = tested on: SK-MEL-28 melanoma
A549 NSCLC = tested on: A549 NSCLC
SK-MEL-5 melanoma = tested on: SK-MEL-5 melanoma
SK-OV-3 ovarian = tested on: SK-OV-3 ovarian
HCT-116 colon = tested on: HCT-116 colon
EKVX NSCLC = tested on: EKVX NSCLC
LOX IMVI melanoma = tested on: LOX IMVI melanoma
SN12C renal = tested on: SN12C renal
OVCAR-3 ovarian = tested on: OVCAR-3 ovarian
M19-MEL melanoma = tested on: M19-MEL melanoma
IGROV1 ovarian = tested on: IGROV1 ovarian
HT29 colon = tested on: HT29 colon
XF 498 CNS = tested on: XF 498 CNS
NCI-H226 lung = tested on: NCI-H226 lung
SF-539 CNS = tested on: SF-539 CNS
HCC-2998 colon = tested on: HCC-2998 colon

`c1ccc(C(c2ccccc2)c2ccncc2)cc1` was tested, and the TGI (UACC-62 melanoma) was greater than 100 µM, the TGI (TK-10 renal) was greater than 100 µM and the TGI (ACHN renal) was greater than 100 µM. It also gave a TGI (UO-31 renal) greater than 100 µM, a TGI (CCRF-CEM leukemia) greater than 100 µM and a TGI (OVCAR-5 ovarian) greater than 100 µM. It also gave a TGI (HOP-18 NSCLC) greater than 100 µM, a TGI (HCT-15 colon) greater than 100 µM and a TGI (NCI-H23 lung) greater than 100 µM. It also gave a TGI (SF-268 CNS) greater than 100 µM, a TGI (OVCAR-4 ovarian) greater than 100 µM and a TGI (HOP-62 NSCLC) greater than 100 µM. For the same compound, the TGI (A498 renal) was greater than 100 µM, the TGI (KM20L2 colon) was greater than 100 µM and the TGI (RXF-631 renal) was greater than 100 µM. The TGI (SNB-75 CNS) was 74.3 µM, the TGI (COLO 205 colon) was greater than 100 µM and the TGI (DMS 273 small cell lung) was greater than 100 µM. For the same compound, the TGI (K-562 leukemia) was greater than 100 µM, the TGI (KM12 colon) was greater than 100 µM and the TGI (MOLT-4 leukemia) was greater than 100 µM. The TGI (DMS 114 small cell lung) was greater than 100 µM, the TGI (OVCAR-8 ovarian) was greater than 100 µM and the TGI (SK-MEL-2 melanoma) was greater than 100 µM. For the same compound, the TGI (DLD-1 colon) was greater than 100 µM, the TGI (NCI-H460 lung) was greater than 100 µM and the TGI (786-0 renal) was greater than 100 µM. It also gave a TGI (RPMI-8226 leukemia) greater than 100 µM, a TGI (UACC-257 melanoma) greater than 100 µM and a TGI (SNB-19 CNS) greater than 100 µM. For the same compound, the TGI (SW-620 colon) was greater than 100 µM, the TGI (SF-295 CNS) was greater than 100 µM and the TGI (SNB-78 CNS) was greater than 100 µM. For the same compound, the TGI (MALME-3M melanoma) was greater than 100 µM, the TGI (CAKI-1 renal) was greater than 100 µM and the TGI (U251 CNS) was greater than 100 µM. For the same compound, the TGI (M14 melanoma) was greater than 100 µM, the TGI (SK-MEL-28 melanoma) was greater than 100 µM and the TGI (A549 NSCLC) was greater than 100 µM. For the same compound, the TGI (SK-MEL-5 melanoma) was greater than 100 µM, the TGI (SK-OV-3 ovarian) was greater than 100 µM and the TGI (HCT-116 colon) was greater than 100 µM. The TGI (EKVX NSCLC) was greater than 100 µM, the TGI (LOX IMVI melanoma) was greater than 100 µM and the TGI (SN12C renal) was greater than 100 µM. It also gave a TGI (OVCAR-3 ovarian) greater than 100 µM, a TGI (M19-MEL melanoma) greater than 100 µM and a TGI (IGROV1 ovarian) greater than 100 µM. For the same compound, the TGI (HT29 colon) was greater than 100 µM, the TGI (XF 498 CNS) was greater than 100 µM and the TGI (NCI-H226 lung) was greater than 100 µM. It also gave a TGI (SF-539 CNS) greater than 100 µM and a TGI (HCC-2998 colon) greater than 100 µM.
